Source: patent US12448655B2, “Antibiotic susceptibility of microorganisms and related methods and systems” (CALIFORNIA INSTITUTE OF TECHNOLOGY, priority 2017, dated 2025)

How the values were obtained:
E. coli isolates = experiment: Quantification of DNA release following antibiotic exposure, filtration and ddPCR (Example 27); assay type: cell-based, Escherichia coli; parameters: dose or concentration left out as unconfirmed; conditions: 15 min exposure, 0.22 μm filtration, ddPCR
Protocol: Filtration experiments. Filtration experiments were performed using E. coli isolates exposed to 0.5 μg/mL ertapenem for 15 min. Immediately following exposure, cultures were passed through 0.22 μm, 1.5 mL cellulose acetate centrifuge tube filters (Corning Costar Spin-X, Corning, NY) by adding 50 μL of sample to the filter and centrifuging for 4 minutes at 1000 ref. DNA was extracted from both the feed and filtrate using QuickExtract DNA Extraction Solution (Lucigen, Middleton, WI, USA). Samples were diluted 10× into extraction buffer and extracted according to manufacturer instructions. The concentration of the single copy E. coli uidA gene was then quantified in the feed and filtrate extractions. The percentage of E. coli DNA in the filtrate was calculated as the filtrate concentration divided by the feed concentration. Droplet digital PCR (ddPCR) was performed using QX200 ddPCR Supermix for EvaGreen (BioRad). 10% of the final reaction volume was template. Published primers targeting the uidA gene in E. coli were used at a final concentration of 500 nM. Cycling conditions consisted of 5.0 min at 95° C., followed by 40 cycles of 95° C. for 30 sec, 60° C. for 30 sec, and 72° C. for 30 sec., with final dye stabilization steps of 4° C. for 5.0 min followed by 90° C. for 5.0 min.
To investigate the mechanism of pol-aAST, experiments were performed to separate free NAs from NAs contained within structurally intact cells or associated with cell debris. Susceptible and resistant clinical isolates were exposed to β-lactams for 15 min, then filtered through […] filters to remove cells from free NAs. NAs in the sample and eluate were then quantified using droplet digital PCR (ddPCR).

Neisseria gonorrhoeae = experiment: AST by inaccessible DNA without enhancing treatment, static incubation time course, qPCR (Example 7); assay type: cell-based; conditions: penicillin-susceptible isolate ng_15; 1 μg/mL PEN; MHB; DNaseI secondary step
Protocol: Antibiotic susceptibility test was performed with methods herein described relying on b-lactam-induced cellular lysis, or cell-wall damage, to generate differences in DNA accessibility between the unexposed and exposed tubes. No enhancing treatment is performed in this example. In this example DNaseI is used to degrade the DNA made accessible by beta-lactam induced damage over incubation times larger than what is tested in examples 1-6 (incubation times >30 minutes)
The layout of this experiment is illustrated in FIG. 14 according to which a penicillin-susceptible isolate is incubated with penicillin for 15 min-6 hours. At each time point, DNaseI will be added to degrade the accessible DNA, then the DNaseI will be inactivated simultaneously with the lysis of the remaining cells. The quantified nucleic acids represent those from the cells with inaccessible DNA throughout the antibiotic exposure and incubation with DNaseI.
The treated and untreated samples were incubated at 37° C. for 15 minutes, Ihr, 2 hr, 3 hr, 4 hr, 5 hr, 6 hr. At each time point, bring the culture tubes into the BSC and incubate an aliquot of the contents with DNaseI to degrade the accessible DNA. • 8. secondary incubation of treated and untreated samples to degrade accessible DNA […]

Ng isolates = experiment: nuc-aAST time-course without enhancing step (Example 32); assay type: cell-based, Neisseria gonorrhoeae; conditions: two PEN-S and two PEN-R Ng isolates; DNase I present; no enhancing step
Protocol: nuc-aAST time-course without enhancing step. Working cultures of Ng isolates were prepared as described in “Ng culture preparation.” Incubation at 37° C. was performed in 100 μL reaction volumes in PCR tube strips on a BioRad C1000 Thermal Cycler. Treated samples consisted of 77.5 μL MHB, 2.5 μL NaHCO3 (200 mM), 5 μL DNase I (2 U/μL), 5 μL PEN (20 μg/mL), and 10 μL working Ng isolate culture. PEN was replaced with NF—H2O in control samples. A 10 μL aliquot of each sample was extracted at 15, 30, 45, 60, 90, and 120 min and diluted 10× in QuickExtract DNA Extraction Solution (Lucigen, Middleton, WI, USA), then heated for 6 min at 65° C. followed by 4 min at 98° C. on a BioRad C1000 Thermal Cycler. All sample handling following antibiotic exposure was performed using a multichannel pipette; qPCR and calculation of % accessibility were performed as described above.
β-lactams should primarily affect peptidoglycan, and should not have a major impact on the outer membrane, which serves as a structural element in Gram-negative bacteria. Therefore, it is expected the primary mechanism behind any increase in accessibility to be cell lysis as a result of exposure to β-lactams, leading to release of genomic DNA to the extracellular environment containing DNase. […]

| Compound | average percentage of DNA released from susceptible isolates (E. coli isolates) | antibiotic exposure time needed for a detectable CT ratio without enhancer (Neisseria gonorrhoeae) | exposure time at which percentage accessibility differed significantly between susceptible and resistant isolates (Ng isolates) |
| --- | --- | --- | --- |
| CO/N=C(\C(=O)N[C@@H]1C(=O)N2C(C(=O)O)=C(CSc3nc(=O)c(=O)[nH]n3C)CS[C@H]12)c1csc(N)n1 [CRO, ceftriaxone] | 6% |  |  |
| penicillin |  | ≥ 3 h | 90 min |
